Legend:
[1] = biological target: 6×HIS-tankyrase1 (1091-1325) (Homo sapiens (Human), UniProt O95271); assay: Tankyrase 1 biochemical assay (AlphaLisa, PARsylation); settings: 400 nM NAD, 60 minutes at RT; read-out: TNKS1 IC50
[2] = biological target: 6×HIS-tankyrase 2 (946-1162) (Homo sapiens (Human), UniProt Q9H2K2); assay: Tankyrase 2 biochemical assay (AlphaLisa, PARsylation); settings: 250 nM NAD; read-out: TNKS2 IC50
[3] = test system: Axin2 accumulation in SW480 cells; assay: Axin2 384 immunofluorescence assay; format: cell-based; settings: Homo sapiens; SW480 cells, 24 hours; read-out: Axin2 384 IF EC50
[4] = biological target: PARP1 (Homo sapiens (Human), UniProt P09874); assay: PARP1 biochemical assay (Trevigen kit)
PARP1, sequence (P09874 whole entry): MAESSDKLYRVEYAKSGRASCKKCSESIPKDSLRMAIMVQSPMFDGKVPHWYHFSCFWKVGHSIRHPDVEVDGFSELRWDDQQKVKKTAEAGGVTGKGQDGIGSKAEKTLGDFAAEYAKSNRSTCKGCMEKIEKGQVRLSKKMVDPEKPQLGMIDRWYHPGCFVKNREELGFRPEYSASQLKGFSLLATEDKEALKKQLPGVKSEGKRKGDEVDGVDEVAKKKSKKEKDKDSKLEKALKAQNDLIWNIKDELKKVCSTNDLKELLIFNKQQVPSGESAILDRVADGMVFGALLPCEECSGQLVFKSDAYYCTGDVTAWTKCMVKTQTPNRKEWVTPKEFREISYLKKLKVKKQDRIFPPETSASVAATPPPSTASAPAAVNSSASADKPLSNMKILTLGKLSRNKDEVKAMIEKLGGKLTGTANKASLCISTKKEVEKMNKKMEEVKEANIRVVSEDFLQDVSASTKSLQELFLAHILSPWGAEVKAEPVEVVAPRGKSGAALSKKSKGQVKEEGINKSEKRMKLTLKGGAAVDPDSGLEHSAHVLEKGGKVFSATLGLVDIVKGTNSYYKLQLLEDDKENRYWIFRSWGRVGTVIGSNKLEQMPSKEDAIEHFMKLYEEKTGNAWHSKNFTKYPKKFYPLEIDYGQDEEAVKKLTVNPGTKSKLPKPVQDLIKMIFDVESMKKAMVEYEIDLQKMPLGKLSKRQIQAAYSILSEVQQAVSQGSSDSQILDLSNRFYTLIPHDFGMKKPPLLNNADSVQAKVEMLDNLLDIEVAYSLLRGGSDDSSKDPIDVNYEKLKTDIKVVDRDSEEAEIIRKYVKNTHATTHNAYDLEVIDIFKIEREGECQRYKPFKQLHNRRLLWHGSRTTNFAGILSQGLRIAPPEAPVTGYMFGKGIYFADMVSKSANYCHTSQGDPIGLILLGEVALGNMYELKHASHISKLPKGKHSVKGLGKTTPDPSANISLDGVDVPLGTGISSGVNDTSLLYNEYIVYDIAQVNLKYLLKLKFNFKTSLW
Excerpt: PARP1 biochemical assay was purchased as a kit from Trevigen (cat.#4676-096-K) and used per manufacturers recommendations.

[5] = biological target: PARP2 (Homo sapiens (Human), UniProt Q9UGN5); assay: PARP2 biochemical assay (BPS kit)
PARP2, sequence (Q9UGN5 whole entry): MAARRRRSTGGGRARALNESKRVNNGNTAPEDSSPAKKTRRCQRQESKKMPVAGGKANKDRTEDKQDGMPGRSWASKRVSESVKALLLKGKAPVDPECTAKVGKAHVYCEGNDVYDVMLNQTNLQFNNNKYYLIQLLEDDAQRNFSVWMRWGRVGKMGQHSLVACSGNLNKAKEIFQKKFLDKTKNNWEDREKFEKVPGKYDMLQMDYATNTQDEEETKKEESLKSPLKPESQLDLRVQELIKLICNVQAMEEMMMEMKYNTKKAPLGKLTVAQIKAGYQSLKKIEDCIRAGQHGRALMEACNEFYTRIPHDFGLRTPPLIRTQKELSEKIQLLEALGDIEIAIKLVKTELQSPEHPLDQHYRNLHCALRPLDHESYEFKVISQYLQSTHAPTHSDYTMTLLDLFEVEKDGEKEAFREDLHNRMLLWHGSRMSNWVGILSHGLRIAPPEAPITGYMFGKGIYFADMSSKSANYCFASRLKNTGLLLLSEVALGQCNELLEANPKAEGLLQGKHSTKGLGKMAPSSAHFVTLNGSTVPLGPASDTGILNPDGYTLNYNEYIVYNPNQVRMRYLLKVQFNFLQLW

[6] = test system: total β-catenin in SW480 colorectal cells; assay: Total β-catenin MSD 96-well plate assay for SW480 cells; settings: Homo sapiens, SW480, read-out: SW480-Total beta-catenin (TBC) IC50 IP

6×HIS-tankyrase1 (1091-1325), sequence (O95271 1091-1325): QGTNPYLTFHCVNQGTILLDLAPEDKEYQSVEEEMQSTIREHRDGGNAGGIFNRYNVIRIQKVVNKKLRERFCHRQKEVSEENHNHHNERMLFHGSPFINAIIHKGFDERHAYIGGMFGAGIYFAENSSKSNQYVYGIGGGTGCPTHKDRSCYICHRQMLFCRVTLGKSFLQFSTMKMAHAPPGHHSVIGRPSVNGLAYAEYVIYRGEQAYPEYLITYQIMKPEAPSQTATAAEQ
6×HIS-tankyrase 2 (946-1162), sequence (Q9H2K2 946-1162): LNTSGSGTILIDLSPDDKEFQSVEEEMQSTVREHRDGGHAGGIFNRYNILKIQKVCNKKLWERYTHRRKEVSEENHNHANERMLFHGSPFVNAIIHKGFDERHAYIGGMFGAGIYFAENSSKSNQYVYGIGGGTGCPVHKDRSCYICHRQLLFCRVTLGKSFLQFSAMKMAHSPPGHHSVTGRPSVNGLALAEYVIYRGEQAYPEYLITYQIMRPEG

| Structure (SMILES) | IC50 [1] | IC50 [2] | EC50 [3] | IC50 [4] | IC50 [5] | IC50 [6] |
| --- | --- | --- | --- | --- | --- | --- |
| COc1ccc(-c2nnc([C@H]3CC[C@H](NC(=O)CCCc4nc5ccccc5c(=O)[nH]4)CC3)o2)cc1 [Example 30, N-(trans-4-(5-(4-methoxyphenyl)-1,3,4-oxadiazol-2-yl)cyclohexyl)-4-(4-oxo-3,4-dihydro-2-quinazolinyl)butanamide] | 0.567 nM | 0.191 nM | 13.9 nM | 1060 nM | 1270 nM | 10.6 nM |
| N#Cc1ccc(O[C@H]2CC[C@H](NC(=O)CCCc3nc4ccccc4c(=O)[nH]3)CC2)cc1 [Example 78, N-(trans-4-(4-cyanophenoxy)cyclohexyl)-4-(4-oxo-3,4-dihydro-2-quinazolinyl)butanamide] | 2.23 nM | 0.434 nM | 49.2 nM | 558 nM | 246 nM | 7.14 nM |
| N#Cc1cccc(O[C@H]2CC[C@H](NC(=O)CCCc3nc4ccccc4c(=O)[nH]3)CC2)c1 [Example 58, N-(trans-4-(3-cyanophenoxy)cyclohexyl)-4-(4-oxo-3,4-dihydro-2-quinazolinyl)butanamide] | 3.26 nM | 1.25 nM | 354 nM | 1580 nM | 983 nM | 98.9 nM |
| COc1ccc(-c2nnc([C@H]3CC[C@H](NC(=O)CCSc4nc5ccccc5c(=O)[nH]4)CC3)o2)cc1 [Example 121, N-((1r,4r)-4-(5-(4-methoxyphenyl)-1,3,4-oxadiazol-2-yl)cyclohexyl)-3-((4-oxo-3,4-dihydroquinazolin-2-yl)thio)propanamide] | 0.0724 nM | 18.1 nM | 1.98 nM | 4430 nM | 6780 nM | 1.1 nM |
| O=C(CCSc1nc2ccccc2c(=O)[nH]1)N[C@H]1CC[C@H](c2nnc(-c3ccc(F)c(Cl)c3)o2)CC1 [Example 122, N-((1r,4r)-4-(5-(3-chloro-4-fluorophenyl)-1,3,4-oxadiazol-2-yl)cyclohexyl)-3-((4-oxo-3,4-dihydroquinazolin-2-yl)thio)propanamide] | 0.153 nM | 1.38 nM | 4.47 nM | > 9440 nM | 7690 nM | 3.04 nM |
| Nc1cc(=O)[nH]c(SCCC(=O)N[C@H]2CC[C@H](c3nnc(-c4ccccc4)o3)CC2)n1 [Example 91, 3-((4-amino-6-oxo-1,6-dihydro-2-pyrimidinyl)sulfanyl)-N-(trans-4-(5-phenyl-1,3,4-oxadiazol-2-yl)cyclohexyl)propanamide] | 3.97 nM | 8.78 nM | 1020 nM | > 85000 nM | > 170000 nM | 1680 nM |
| O=C(CCCc1nc2ccccc2c(=O)[nH]1)N[C@H]1CC[C@H](Oc2cccc(Cl)c2)CC1 [Example 66, N-(trans-4-(3-chlorophenoxy)cyclohexyl)-4-(4-oxo-3,4-dihydro-2-quinazolinyl)butanamide] | 3.11 nM | 1.02 nM | 628 nM | 1390 nM | 998 nM | 614 nM |
| N#Cc1ccccc1O[C@H]1CC[C@H](NC(=O)CCCc2nc3ccccc3c(=O)[nH]2)CC1 [Example 57, N-(trans-4-(2-cyanophenoxy)cyclohexyl)-4-(4-oxo-3,4-dihydro-2-quinazolinyl)butanamide] | 31.2 nM | 12.5 nM | 1710 nM | 5960 nM | 905 nM | 510 nM |
| O=C(CCCc1nc2ccccc2c(=O)[nH]1)N1CCC(n2c(=O)[nH]c3cc(F)ccc32)CC1 [Example 51, 2-(4-(4-(5-fluoro-2-oxo-2,3-dihydro-1H-benzimidazol-1-yl)-1-piperidinyl)-4-oxobutyl)-4(3H)-quinazolinone trifluoroacetic acid] | 4.09 nM | 0.517 nM | 661 nM | 894 nM | 553 nM | 348 nM |
| N#Cc1ccc2c(c1)[nH]c(=O)n2[C@H]1CC[C@H](NC(=O)CCSc2nc3ccccc3c(=O)[nH]2)CC1 [Example 104, N-((1r,4r)-4-(5-cyano-2-oxo-2,3-dihydro-1H-benzo[d]imidazol-1-yl)cyclohexyl)-3-((4-oxo-3,4-dihydroquinazolin-2-yl)thio)propanamide] | 0.045 nM | 1.31 nM | 9.45 nM | 1350 nM | 1180 nM | 8.42 nM |
| O=C(CCCc1nc2ccccc2c(=O)[nH]1)N1CCC(n2c(=O)[nH]c3ccccc32)CC1 [Example 41, 2-(4-oxo-4-(4-(2-oxo-2,3-dihydro-1H-benzimidazol-1-yl)-1-piperidinyl)butyl)-4(3H)-quinazolinone trifluoroacetic acid] | 8.05 nM | 4.91 nM | 3380 nM | 1490 nM | 500 nM | 1710 nM |

Results, then the compound that gave them:

| IC50 [1] | IC50 [2] | EC50 [3] | IC50 [4] | IC50 [5] | IC50 [6] | Structure (SMILES) |
| --- | --- | --- | --- | --- | --- | --- |
| 42.8 nM | 6.54 nM | 461 nM | 7090 nM | 1240 nM | 358 nM | O=C(CCCc1nc2ccccc2c(=O)[nH]1)N1CCC(c2nnc(-c3cccnc3)o2)CC1 [Example 13, 2-(4-oxo-4-(4-(5-(3-pyridinyl)-1,3,4-oxadiazol-2-yl)-1-piperidinyl)butyl)-4(3H)-quinazolinone] |
| 0.873 nM | 0.206 nM | 217 nM | 464 nM | 349 nM | 302 nM | N#Cc1cccc2c1[nH]c(=O)n2C1CCN(C(=O)CCCc2nc3ccccc3c(=O)[nH]2)CC1 [Example 61, 2-oxo-1-(1-(4-(4-oxo-3,4-dihydro-2-quinazolinyl)butanoyl)-4-piperidinyl)-2,3-dihydro-1H-benzimidazole-4-carbonitrile] |
| 88.4 nM | 29.5 nM | 2950 nM | 7630 nM | 4670 nM | > 10000 nM | O=C(CCCSc1nc2ccccc2c(=O)[nH]1)N1CCC(c2nnc(-c3ccccc3)o2)CC1 [Example 111, 2-((4-oxo-4-(4-(5-phenyl-1,3,4-oxadiazol-2-yl)piperidin-1-yl)butyl)thio)quinazolin-4(3H)-one] |
| 0.495 nM | 0.301 nM | 32.5 nM | 801 nM | 828 nM | 15.7 nM | COc1cccc(-c2nnc([C@H]3CC[C@H](NC(=O)CCCc4nc5ccccc5c(=O)[nH]4)CC3)o2)c1 [Example 32, N-(trans-4-(5-(3-methoxyphenyl)-1,3,4-oxadiazol-2-yl)cyclohexyl)-4-(4-oxo-3,4-dihydro-2-quinazolinyl)butanamide] |
| 11.3 nM | 3.19 nM | 166 nM | 2850 nM | 370 nM | 151 nM | N#Cc1cccc(-c2nnc(C3CCN(C(=O)CCCc4nc5ccccc5c(=O)[nH]4)CC3)o2)c1 [Example 20, 3-(5-(1-(4-(4-oxo-3,4-dihydroquinazolin-2-yl)butanoyl)piperidin-4-yl)-1,3,4-oxadiazol-2-yl)benzonitrile] |
| 18.8 nM | 2.59 nM | 247 nM | 5410 nM | 783 nM | 63.9 nM | O=C(CCCc1nc2ccccc2c(=O)[nH]1)N1CCC(c2nnc(-c3ccc(F)cc3)o2)CC1 [Example 6, 2-(4-(4-(5-(4-fluorophenyl)-1,3,4-oxadiazol-2-yl)piperidin-1-yl)-4-oxobutyl)quinazolin-4(3H)-one] |
